According to publication PMC9602792, “Preclinical evaluation of the epithelial sodium channel inhibitor AZD5634 and implications on human translation” (American Journal of Physiology - Lung Cellular and …, 2022):

Columns and labels:
Cftr^−/− rats = test: μOCT of trachea and lungs excised en bloc from Cftr-knockout rats treated in vivo; design: species or system rat; settings: seven 200-μL doses of 54 µM by oropharyngeal aspiration over 4 days; not significant vs vehicle
Experimental: μOCT imaging and analysis were conducted in vitro and ex vivo as detailed in previous publications ([2], [39]–[41]). Briefly, the μOCT system uses light reflectance to produce video-rate (40 frames/s and 512 lines/frame), high-resolution images (1 micron) captured in real-time and without disruption of sample tissue, permitting simultaneous interrogation of key parameters of airway microanatomy without the addition of exogenous particles or dyes. Following imaging of HBEC cultures and of excised trachea and lungs, images were assessed to obtain quantitative measurements of mucociliary transport (MCT) rate, ASL depth, and ciliary beat frequency (CBF). MCT rates were calculated by analyzing the distance traveled by native particles in the mucus layer over time across multiple frames. Direct geometric measurement of layer thickness (Image J software) yielded ASL depths. CBF was determined by using custom code developed in Matlab (Mathworks, Natick, MA) to quantify the reflectance of beating cilia by Fourier analysis. […] The results for each trachea and lung sample reflected an average of measurements from images obtained from a minimum of six controlled points along the tracheal length, using the cranial end as a reference.
Six-month-old Cftr-knockout rats (female and male) were treated with seven 200-μL doses of either 54 µM AZD5634 or vehicle control, delivered by oropharyngeal aspiration, over 4 days (two doses daily for 3 days and a single dose on the 4th day, 2 h before euthanasia). Rats were euthanized by intraperitoneal injection of pentobarbital sodium (Fatal Plus, 100 mg/kg), and trachea and lungs were excised en bloc and dissected along the dorsal surface from the larynx to the terminal end of the main stem bronchi. […]
Descriptive statistics were calculated and means compared using unpaired or paired t tests, or ANOVA, with post hoc analyses conducted for multiple comparisons where appropriate. […]

[1] = system: HBECs grown under ALI conditions; test: Gravimetric measurement of ASL (fluid retention) in HBEC ALI cultures; assay type: cell-based, human; settings: gravimetric ALI assay; concentrations of 0.1 µM and above
Experimental: After 3–4 wk, the HBEC ALI cultures were washed with PBS twice before the experiment was initiated. Thirty microliters of either vehicle or test compound (10 μM) was added apically and inserts were weighed after removal of basolateral fluid as a crude but simple way to measure retention of fluid on the apical side of the airway cultures. The weighing procedure was repeated at 4, 8, and 24 h.

Q: For AZD5634, which ASL depth (Cftr^−/− rats) is on record?
A: 15.8 ± 2.1 µm

Q: And the MCT rate (Cftr^−/− rats)?
A: 0.3 ± 0.1 mm/min

Q: And the “ciliary beating (CBF)” value (Cftr^−/− rats)?
A: 7.9 ± 0.7 Hz

Q: What about the “duration of (fluid-retaining) effect on ASL” value [1] of the same substance?
A: > 24 h
